Laboratory results: patent publication US10750743B2, “Pyridazinone herbicides” (E.I. DU PONT DE NEMOURS AND COMPANY, priority 2015, dated 2020)

Experiments:
Assay type in all cases: in vivo
[1] = tested on: ryegrass, It. (Italian ryegrass, Lolium multiflorum); test: Test A preemergence, directed soil spray, visual injury rating; settings: 0 is no effect, 100 is complete control
Text: (§1) Seeds of plant species selected from barnyardgrass (Echinochloa crus-galli), kochia (Kochia scoparia), ragweed (common ragweed, Ambrosia elatior), ryegrass, It. (Italian ryegrass, Lolium multiflorum), foxtail, giant (giant foxtail, Setaria faberii), and pigweed (Amaranthus retroflexus), were planted into a blend of loam soil and sand and treated preemergence with a directed soil spray using test chemicals formulated in a non-phytotoxic solvent mixture which included a surfactant.
(§2) At the same time, plants selected from these weed species and also wheat (Triticum aestivum), corn (Zea mays), blackgrass (Alopecurus myosuroides), and galium (catchweed bedstraw, Galium aparine), were planted in pots containing the same blend of loam soil and sand and treated with postemergence applications of test chemicals formulated in the same manner Plants ranged in height from 2 to 10 cm and were in the one- to two-leaf stage for the postemergence treatment. Treated plants and untreated controls were maintained in a greenhouse for approximately 10 d, after which time all treated plants were compared to untreated controls and visually evaluated for injury. Plant response ratings, summarized in Table A, are based on a 0 to 100 scale where 0 is no effect and 100 is complete control. A dash (-) response means no test result.

[2] = tested on: pigweed (Amaranthus retroflexus); test: as above; settings: 0 is no effect, 100 is complete control
Text: as §1, §2

kochia (Kochia scoparia) [3] = test: as above; settings: 0 is no effect, 100 is complete control
Text: as §1, §2

[4] = tested on: ragweed (common ragweed, Ambrosia elatior); test: as above; settings: 0 is no effect, 100 is complete control
Text: as §1, §2

[5] = tested on: barnyardgrass (Echinochloa crus-galli); test: as above; settings: 0 is no effect, 100 is complete control
Text: as §1, §2

[6] = tested on: foxtail, giant (giant foxtail, Setaria faberii); test: as above; settings: 0 is no effect, 100 is complete control
Text: as §1, §2

[7] = tested on: wheat (Triticum aestivum); test: Test A postemergence application, visual injury rating; settings: 0 to 100 scale, 0 no effect, 100 complete control
Text: as §1, §2

corn (Zea mays) = test: as above; settings: 0 to 100 scale, 0 no effect, 100 complete control
Text: as §1, §2

[8] = tested on: ryegrass, It. (Italian ryegrass, Lolium multiflorum); test: as above; settings: 0 to 100 scale, 0 no effect, 100 complete control
Text: as §1, §2

[9] = tested on: pigweed (Amaranthus retroflexus); test: as above; settings: 0 to 100 scale, 0 no effect, 100 complete control
Text: as §1, §2

kochia (Kochia scoparia) [10] = test: as above; settings: 0 to 100 scale, 0 no effect, 100 complete control
Text: as §1, §2

[11] = tested on: ragweed (common ragweed, Ambrosia elatior); test: as above; settings: 0 to 100 scale, 0 no effect, 100 complete control
Text: as §1, §2

[12] = tested on: barnyardgrass (Echinochloa crus-galli); test: as above; settings: 0 to 100 scale, 0 no effect, 100 complete control
Text: as §1, §2

[13] = tested on: foxtail, giant (giant foxtail, Setaria faberii); test: as above; settings: 0 to 100 scale, 0 no effect, 100 complete control
Text: as §1, §2

[14] = tested on: blackgrass (Alopecurus myosuroides); test: as above; settings: 0 to 100 scale, 0 no effect, 100 complete control
Text: as §1, §2

[15] = tested on: galium (catchweed bedstraw, Galium aparine); test: as above; settings: 0 to 100 scale, 0 no effect, 100 complete control
Text: as §1, §2

rice (Oryza sativa) = test: Test B flooded paddy test, visual rating; settings: Flood, 250 g ai/ha, applied to paddy water, rated after 13 to 15 d
Method: (§3) Plant species in the flooded paddy test selected from rice (Oryza sativa), sedge, umbrella (small-flower umbrella sedge, Cyperus difformis), ducksalad (Heteranthera limosa), and barnyardgrass (Echinochloa crus-galli) were grown to the 2-leaf stage for testing. At time of treatment, test pots were flooded to 3 cm above the soil surface, treated by application of test compounds directly to the paddy water, and then maintained at that water depth for the duration of the test. Treated plants and controls were maintained in a greenhouse for 13 to 15 d, after which time all species were compared to controls and visually evaluated. Plant response ratings, summarized in Table B, are based on a scale of 0 to 100 where 0 is no effect and 100 is complete control. A dash (-) response means no test result.

[16] = tested on: barnyardgrass (Echinochloa crus-galli); test: Test B flooded paddy test, visual rating; settings: Flood, 250 g ai/ha, applied to paddy water, rated after 13 to 15 d
Method: as §3

[17] = tested on: ducksalad (Heteranthera limosa); test: Test B flooded paddy test, visual rating; settings: Flood, 250 g ai/ha, applied to paddy water, rated after 13 to 15 d
Method: as §3

| SMILES | Plant response rating (0 to 100 scale), Ryegrass, It. ([1]; 125 g ai/ha) | Plant response rating (0 to 100 scale), Ryegrass, It. ([1]; 500 g ai/ha) | Plant response rating (0 to 100 scale), Pigweed ([2]; 125 g ai/ha) | Plant response rating (0 to 100 scale), Pigweed ([2]; 500 g ai/ha) | Plant response rating (0 to 100 scale), Kochia (kochia (Kochia scoparia) [3]; 125 g ai/ha) | Plant response rating (0 to 100 scale), Kochia (kochia (Kochia scoparia) [3]; 500 g ai/ha) | Plant response rating (0 to 100 scale), Ragweed ([4]; 500 g ai/ha) | Plant response rating (0 to 100 scale), Barnyardgrass ([5]; 125 g ai/ha) | Plant response rating (0 to 100 scale), Barnyardgrass ([5]; 500 g ai/ha) | Plant response rating (0 to 100 scale), Foxtail, Giant ([6]; 125 g ai/ha) | Wheat plant response rating ([7]; 125 g ai/ha) | Corn plant response rating (corn (Zea mays); 125 g ai/ha) | Ryegrass, It. plant response rating ([8]; 125 g ai/ha) | Pigweed plant response rating ([9]; 125 g ai/ha) | Kochia plant response rating (kochia (Kochia scoparia) [10]; 125 g ai/ha) | Ragweed plant response rating ([11]; 125 g ai/ha) | Barnyardgrass plant response rating ([12]; 125 g ai/ha) | Foxtail, Giant plant response rating ([13]; 125 g ai/ha) | Blackgrass plant response rating ([14]; 125 g ai/ha) | Galium plant response rating ([15]; 125 g ai/ha) | other results |
| --- | --- | --- | --- | --- | --- | --- | --- | --- | --- | --- | --- | --- | --- | --- | --- | --- | --- | --- | --- | --- | --- |
| Cc1cnc2sc(C)c(-c3c(OC(=O)C4CC4)c(C)nn(C)c3=O)c2c1 [Compound 9] | 30 | 70 | 0 | 30 | 0 | 30 | 30 | 0 | 0 | 0 | 0 | 0 | 30 | 50 | 40 | 10 | 0 | 0 | 0 | 50 | Plant response rating (0 to 100 scale), Foxtail, Giant ([6]; 500 g ai/ha): 40; Wheat plant response rating ([7]; 500 g ai/ha): 0; Corn plant response rating (corn (Zea mays); 500 g ai/ha): 0; Ryegrass, It. plant response rating ([8]; 500 g ai/ha): 60; Pigweed plant response rating ([9]; 500 g ai/ha): 80; Kochia plant response rating (kochia (Kochia scoparia) [10]; 500 g ai/ha): 50; Ragweed plant response rating ([11]; 500 g ai/ha): 30; Barnyardgrass plant response rating ([12]; 500 g ai/ha): 20; Foxtail, Giant plant response rating ([13]; 500 g ai/ha): 40; Blackgrass plant response rating ([14]; 500 g ai/ha): 20; Galium plant response rating ([15]; 500 g ai/ha): 60 |
| Cc1nn(C)c(=O)c(-c2c(C)sc3ncccc23)c1O [Compound 14] | 10 | 20 | 0 | 0 | 0 | 0 | 0 | 0 | 0 | 0 | 0 | 0 | 0 | 0 | 0 | 0 | 0 | 0 | 0 | 0 | Plant response rating (0 to 100 scale), Ragweed ([4]; 125 g ai/ha): 0; Plant response rating (0 to 100 scale), Foxtail, Giant ([6]; 500 g ai/ha): 0; Wheat plant response rating ([7]; 500 g ai/ha): 0; Corn plant response rating (corn (Zea mays); 500 g ai/ha): 0; Ryegrass, It. plant response rating ([8]; 500 g ai/ha): 20; Pigweed plant response rating ([9]; 500 g ai/ha): 0; Kochia plant response rating (kochia (Kochia scoparia) [10]; 500 g ai/ha): 0; Ragweed plant response rating ([11]; 500 g ai/ha): 0; Barnyardgrass plant response rating ([12]; 500 g ai/ha): 0; Foxtail, Giant plant response rating ([13]; 500 g ai/ha): 0; Blackgrass plant response rating ([14]; 500 g ai/ha): 0; Galium plant response rating ([15]; 500 g ai/ha): 40 |
| CCC(=O)Oc1c(C)nn(C)c(=O)c1-c1ccc(Cl)c2sccc12 [Compound 58] | 50 | – | 0 | – | 70 | – | – | 0 | – | 0 | 0 | 0 | 10 | 20 | 60 | 0 | 0 | 0 | 0 | 90 | Plant response rating (0 to 100 scale), Ryegrass, It. ([1]; 31 g ai/ha): 0; Plant response rating (0 to 100 scale), Pigweed ([2]; 31 g ai/ha): 20; Plant response rating (0 to 100 scale), Kochia (kochia (Kochia scoparia) [3]; 31 g ai/ha): 0; Plant response rating (0 to 100 scale), Ragweed ([4]; 31 g ai/ha): 0; Plant response rating (0 to 100 scale), Ragweed ([4]; 125 g ai/ha): 80; Plant response rating (0 to 100 scale), Barnyardgrass ([5]; 31 g ai/ha): 0; Plant response rating (0 to 100 scale), Foxtail, Giant ([6]; 31 g ai/ha): 20; Rice plant response rating (0 to 100 scale, 0 is no effect, 100 is complete control) (rice (Oryza sativa)): 0; Barnyardgrass plant response rating (0 to 100 scale, 0 is no effect, 100 is complete control) [16]: 0; Ducksalad plant response rating (0 to 100 scale, 0 is no effect, 100 is complete control) [17]: 0; Wheat plant response rating ([7]; 31 g ai/ha): 0; Corn plant response rating (corn (Zea mays); 31 g ai/ha): 0; Ryegrass, It. plant response rating ([8]; 31 g ai/ha): 0; Pigweed plant response rating ([9]; 31 g ai/ha): 0; Kochia plant response rating (kochia (Kochia scoparia) [10]; 31 g ai/ha): 0; Ragweed plant response rating ([11]; 31 g ai/ha): 0; Barnyardgrass plant response rating ([12]; 31 g ai/ha): 0; Foxtail, Giant plant response rating ([13]; 31 g ai/ha): 0; Blackgrass plant response rating ([14]; 31 g ai/ha): 0; Galium plant response rating ([15]; 31 g ai/ha): 20 |
